Assay results from US8093043B2, “β-TrCP1, β-TrCP2 and RSK1 or RSK2 inhibitors and methods for sensitizing target cells to apoptosis” (New York University, priority 2008, dated 2012).
Entries after “also recorded” stand apart in the source; their conditions may differ. Non-standard residues stand in square brackets, D forms with d. Residues, ends and D or L forms follow the SMILES beside them. No end group written: not given here. *: point of attachment. pS = N[C@@H](COP(=O)(O)O)C(=O)O; Cbz = O=C(OCc1ccccc1)*

Legend:
primary thymocytes = test: Cell death of primary thymocytes from Bim+/+ or Bim−/− mice (propidium iodide flow cytometry); type: cell-based, mouse; conditions: primary thymocytes (T cells) from Bim+/+ or Bim−/− mice, 10 mM BI-D1870, 0-5 days
Method: Cell death was induced by addition of 10 mM BI-D1870 for 0-5 days in primary thymocytes obtained from Bim+/+ or Bim−/− mice. Cell viability was determined by flow cytometric analysis by staining the cells with propidium iodide. Cell debris was excluded from analysis based on its forward and sideward scatter characteristics. The experiment was performed in triplicate using 3 Bim+/+ and 2 Bim−/− mice for each experiment. Data shown are the means±1 SD.
Cells. HeLa (from ATCC) and U2OS (from ATCC) cells were cultured essentially as described in Donzelli et al. (EMBO J., 2002; 21:4875-84). Cells were grown at 37° C. in a 5% CO2 atmosphere in Dulbecco's modified Eagle's medium (Euroclone) supplemented with 10% bovine calf serum (Hyclone) and 2 mM L-glutamine (Euroclone), or in DMEM containing 5% fetal calf serum (FCS, from GIBCO). HEK293 (from ATCC), Bim−/− MEFs and Bax−/−; Bak−/− immortalized mouse embryo fibroblasts (MEFs) (from Dr. Huang at The Walter and Eliza Hall Institute of Medical Research, Australia; see Bouillet et al., Science, 1999, 286:1735-1738; Lindsten et al., Mol. Cell, 2000, 6:1389-1399) were maintained in Dulbecco's modified Eagle's medium (DMEM) containing 10% fetal bovine serum (FBS, from GIBCO). H1650 and HCC827 cells (both from ATCC) were maintained in RPMI-1640 medium (GIBCO) containing 10% FBS. Primary thymocytes were obtained from 6 week Bim+/+ or Bim−/− mice. […]

BimEL [1] = test: BimEL accumulation in MEFs after pharmacological RSK inhibition (immunoblot); type: cell-based, mouse; conditions: MEFs, 0, 1 and 5 μM BI-D1870 for 12 hours, immunoblot for Bim
Method: MEFs were treated with 0, 1 and 5 μM BI-D1870 for 12 hours. Cell extracts were then immunoblotted for the Bim and HSP70 (control) proteins.
Western Blotting (IP-Western). Immuno-blotting was conducted essentially as described in Donzelli et al. (2002), supra. Three pieces of the Whatman paper were wetted in Western transfer buffer (48 mM Tris Base, 39 mM Glycine, 0.0375% SDS, and 20% Methanol in ddH2O), excess of buffer was removed and pieces were placed onto the platinum anode (BIO-RAD semi-dry trans-blot SD). The nitrocellulose was wetted in the same buffer and placed onto the Whatman paper. The gel was wetted in the transfer buffer for 5 to 10 seconds and placed onto the nitrocellulose. Three pieces of Whatman paper were wetted and, removing excess of buffer, placed onto the gel. Air bubbles were removed throughout this procedure. The trans-blot cathode was placed onto the stack. The gel was transferred at a constant voltage between 15 to 25V for 30 minutes.

BimEL [2] = test: PMA-induced BimEL degradation in HEK293 cells (immunoblot); type: cell-based, human
Source text: siRNA. β-TrCP1/2 siRNA […] (SEQ ID NO:19) (Guardavaccaro et al., In vivo Dev Cell, 2003, 4:799-812; Margottin-Goguet cl al., Dev Cell, 2003; 4:813-26); RSK1 siRNA […] (SEQ ID NO:21) and RSK2 siRNA […] (SEQ ID NO:22) (Anjum et al., Curr Biol., 2005, 15:1762-7; Roux et al., J Biol. Chem., 2007, 282:14056-64). Control oligonucleotide was a dsRNA oligo to LacZ mRNA […] (SEQ ID NO:28). All siRNA oligonucleotides were from Dharmacon Research Inc. (Lafayette, Colo.). Cells were transfected with siRNA duplexes by Oligofectamine (Invitrogen, Carlsbad, Calif.), following manufacturer's instructions. Cells were transfected with the oligos twice (at 24 and 48 hours after plating) using oligofectamine (Invitrogen) for HEK293, HiPerFect (Qiagen) for NSCLC cell lines, or the AMAXA nucleofactor (Amaxa Inc. Gaithersburg, Md.) for CD4+ human T cell blasts at day 5, according to manufacturer's recommendations. 24 or 48 hours after the last transfection, cells were collected and analyzed.
(§1) When βTrCP1/2 is silenced (FIG. 4A) or RSK1/2 is silenced (FIG. 4B), BimEL's degradation (induced with PMA) is inhibited. […] For the experiments shown in FIG. 4A, HEK293 cells were treated with control siRNA (SEQ ID NO:28) or siRNA targeting βTrcp1/2 (SEQ ID NO:19). 48 hours after siRNA treatment cells were treated with PMA or with PMA+MG 132 (last four lanes) for indicated times. Protein extracts were immunoblotted for the indicated proteins.
For the experiments shown in FIG. 4B, HEK293 cells were treated with control siRNA (SEQ ID NO:28) or siRNA targeting RSK 1 (SEQ ID NO:21) and RSK2 (SEQ ID NO:22). 48 hours after siRNA treatment cells were treated with PMA for indicated times. Protein extracts were immunoblotted for the indicated proteins.

BimEL [3] = test: In vivo phosphorylation of BimEL on Ser93/94/98 (immunoprecipitation, phospho-specific antibody); type: cell-based; conditions: cells serum deprived 24 hours, PMA for 10 minutes
Method: Serines 93, 94 and 98 were also shown to be phosphorylated in vivo following activation of ERK by either serum addition or PMA (FIG. 2C). In this experiment, BimEL from cells treated with PMA as well as from cells released from serum starvation were immunoprecipitated. In the experiments in FIG. 2C, cells were serum deprived (SD) for 24 hours, serum released (SR) for 10 minutes (lane 2) or treated with PMA for 10 minutes (lane 3-5). Whole cell extracts (WCE) were subjected to immunoprecipitation using HA resin (α-HA) followed by immunoblotting for β-TrCP1, and antiHA (for BimEL).

H1650 cells = conditions: EGFR mutant NSCLC; cited from earlier work
βTrCP = βTrCP knockdown efficiency (Cdc25A accumulation, RT-PCR); type: cell-based, human; conditions: HEK293 cells; accumulation of Cdc25A, confirmed by RT-PCR
Method: FIGS. 8A-E represent quantitative analysis of βTrCP1 mRNA in HEK293, HCC827, H1650 cell lines and CD4+ human T cells treated with an siRNA oligo targeting both βTrCP1 and βTrCP2 mRNAs (SEQ ID NO:19). Representative examples showing knockdown efficiency for βTrCP siRNA by RT-PCR analysis with oligo-dT-primed, reverse-transcribed cDNA derived from total RNA that was prepared from the indicated cells transfected with either control or βTrCP siRNAs. Quantitative PCR was conducted using locus-specific primers: forward […] (SEQ ID NO:29) and reverse […] (SEQ ID NO:30) (n=3, ±SD). For HEK293 cells, knockdown efficiency was additionally analyzed by βTrCP1 immunoprecipitation and subsequent immunoblot analysis (D).
as §1

β-TrCP1 = biological target: T1, β-TrCP1 (Homo sapiens, UniProt Q9Y297); test: In vitro peptide binding assay with 35S-labeled in vitro translated β-TrCP1; conditions: autoradiography; Fbxw2 and Fbxw4 as comparison
T1 construct: host or cells: cell-free in vitro transcription/translation in reticulocyte lysate
T1 sequence (Q9Y297 1-605): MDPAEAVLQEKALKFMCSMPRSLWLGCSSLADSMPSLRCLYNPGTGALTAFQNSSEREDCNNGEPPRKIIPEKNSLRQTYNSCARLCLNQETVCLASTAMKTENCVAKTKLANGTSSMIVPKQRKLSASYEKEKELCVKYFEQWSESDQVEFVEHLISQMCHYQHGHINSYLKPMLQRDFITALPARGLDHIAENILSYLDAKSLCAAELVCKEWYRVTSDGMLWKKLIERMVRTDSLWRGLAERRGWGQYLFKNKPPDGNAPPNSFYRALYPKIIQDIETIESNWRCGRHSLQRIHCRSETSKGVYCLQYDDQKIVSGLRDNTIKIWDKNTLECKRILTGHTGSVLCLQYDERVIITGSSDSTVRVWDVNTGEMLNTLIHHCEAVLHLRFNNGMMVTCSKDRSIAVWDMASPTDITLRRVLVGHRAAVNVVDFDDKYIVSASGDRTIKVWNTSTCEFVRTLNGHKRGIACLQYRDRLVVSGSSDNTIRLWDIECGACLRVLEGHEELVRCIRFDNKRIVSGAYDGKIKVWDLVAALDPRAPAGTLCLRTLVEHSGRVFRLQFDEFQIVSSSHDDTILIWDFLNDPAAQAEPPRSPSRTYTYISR
Method: Peptide binding assay. The peptides were coupled to agarose beads using the Aminolink Kit (Pierce, Rockford, Ill.). Coupled BimEL, β-TrCP1/2, RSK1/2, or Cdc25A peptides (10 mg) were incubated with ^35S-methionine-labeled in vitro-translated β-TrCP1/2, FBXW2 or FBXW4, using the TNT-coupled reticulocyte lysate system (Promega, Madison, Wis.) in the presence of 5 μCi of ^35S-labeled methionine (Amersham Biosciences, Piscataway, N.Y.). Agarose beads were washed with RIPA buffer and binding was assayed by SDS-PAGE followed by autoradiography.
In this experiment in vitro binding assays were performed using in, vitro translated β-TrCP1 and a purified BimEL peptide composed of 13 amino-acids containing the degron motif. The in vitro binding assays were performed between ^35S-labeled in vitro transcribed/translated β-Trcp1, Fbxw2 and Fbxw4 and beads-coupled BimEL peptide ^88[…]^100 (SEQ ID NO:24) or BimEL phosphopeptide ^88CLSRSpSpSGYFpSFD^100 (SEQ ID NO:25). Bound proteins were eluted and subjected to electrophoresis and autoradiography.

[4] = siRNAs targeting RSK1 and RSK2 used together, PMA 48 hours after siRNA

## CC(C)CCN1c2nc(Nc3cc(F)c(O)c(F)c3)ncc2N(C)C(=O)C1C (stereo not shown) [BI-D1870]
Primary thymocytes
  Bim-dependent cell death / cell viability: from wild-type mice, but not from Bim^−/− mice, died; also recorded: induces Bim-dependent cell death
BimEL [1]
  BimEL accumulation: induced BimEL accumulation; also recorded: induces an accumulation of BimEL

## CC(C)C[C@@H](C=O)NC(=O)[C@H](CC(C)C)NC(=O)[C@H](CC(C)C)NC(=O)OCc1ccccc1 [MG132] (Cbz-Leu-Leu-Leu-aldehyde)
BimEL [2]; PMA+MG 132
  effect on PMA-induced BimEL degradation: Inhibition of BimEL's degradation

## CCCCCCCCCCCCCC(=O)O[C@@H]1[C@@H](C)[C@@]2(O)[C@@H](C=C(CO)C[C@]3(O)C(=O)C(C)=C[C@@H]23)[C@@H]2C(C)(C)[C@]12OC(C)=O [PMA]
BimEL [3]
  phosphorylation of BimEL on Ser93/94/98: rapidly induced

## COc1cc2ncnc(Nc3ccc(F)c(Cl)c3)c2cc1OCCCN1CCOCC1 [gefitinib]
H1650 cells
  sensitivity to gefitinib: not

## AGCGCUGAGAAUGGACAGCAA (listed as RNA, chemistry not given here; listed as Homo sapiens) [SEQ ID NO:22, siRNA for human RSK2]
BimEL [2]; [4]
  effect on PMA-induced BimEL degradation: counteracted the effect of PMA on BimEL degradation, stabilizing BimEL

## CCCAACAUCAUCACUCUGAAA (listed as RNA, chemistry not given here; listed as Homo sapiens) [SEQ ID NO:21, siRNA for human RSK1]
BimEL [2]; [4]
  effect on PMA-induced BimEL degradation: counteracted the effect of PMA on BimEL degradation, stabilizing BimEL

## GUGGAAUUUGUGGAACAUC [SEQ ID NO:19]
βTrCP
  βTrCP knockdown: efficient βTrCP knockdown
BimEL [2]; siRNA targeting βTrcp1/2, PMA 48 hours after siRNA
  effect on PMA-induced BimEL degradation: counteracted the effect of PMA on BimEL degradation, stabilizing BimEL

## ^88CLSRSpSpSGYFpSFD^100 (CLSRS[pS][pS]GYF[pS]FD; listed as Homo sapiens) [SEQ ID NO:25, BimEL phosphopeptide of 13 amino acids containing the degron motif]
β-TrCP1
  binding of βTrCP1 to beads-coupled BimEL peptide: binds specifically
